For the first assay, the target named is PHGDH (Homo sapiens (Human), UniProt O43175). Put plainly: 3-Phosphoglycerate Dehydrogenase (PHGDH) Fluorescence Intensity Assay, run at two NAD/3-PG ratios: PHGDH_HIGH_NAD/3-PG (250 μM NAD/500 μM 3-PG) and PHGDH_500_NAD/3-PG (500 μM NAD/500 μM 3-PG). It is filed as biochemical. The conditions noted are these: 250 μM NAD/500 μM 3-PG; read-out: IC50 (PHGDH_HIGH_NAD/3-PG).
Sequence of PHGDH (O43175 2-533 limits assumed): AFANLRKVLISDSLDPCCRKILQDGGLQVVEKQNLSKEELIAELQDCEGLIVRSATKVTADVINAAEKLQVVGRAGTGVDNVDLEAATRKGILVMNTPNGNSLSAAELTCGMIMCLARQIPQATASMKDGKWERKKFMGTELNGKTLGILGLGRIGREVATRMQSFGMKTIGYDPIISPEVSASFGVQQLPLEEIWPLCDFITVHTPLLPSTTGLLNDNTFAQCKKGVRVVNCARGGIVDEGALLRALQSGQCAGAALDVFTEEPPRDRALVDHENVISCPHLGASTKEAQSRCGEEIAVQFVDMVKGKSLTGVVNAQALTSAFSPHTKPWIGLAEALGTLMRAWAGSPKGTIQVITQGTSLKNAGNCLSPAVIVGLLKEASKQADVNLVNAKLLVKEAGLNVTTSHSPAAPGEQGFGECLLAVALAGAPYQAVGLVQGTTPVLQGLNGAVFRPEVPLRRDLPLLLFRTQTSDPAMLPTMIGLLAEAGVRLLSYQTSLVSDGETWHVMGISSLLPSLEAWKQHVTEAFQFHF
Source text: This assay is used to identify compounds which inhibit the enzymatic activity of PHGDH which catalyzes the reaction of 3-Phosphoglycerate (3-PG) and NAD to 3-Phosphohydroxypyruvate and NADH.
The produced NADH is used in a coupled reaction for Diaphorase mediated reduction of Resazurin to Resorufin which can be measured in a Fluorescence Intensity readout.
The full length version of PHGDH enzyme was expressed in E. coli with an N-terminal HIS-tag and a TEV cleavage site.
The 3-Phosphoglycerate substrate was purchased from Sigma. NAD, Diaphorase and Resazurin were purchased from Sigma Aldrich.
Compounds are dispensed onto assay plates (black, low volume, flat bottom 384 well, Corning) using an Access Labcyte Workstation with the Labcyte Echo 55× from a DMSO solution. For the chosen highest assay concentration of 100 μM, 150 nl of compound solution are transferred from a 10 mM DMSO compound stock solution. A series of 11 concentrations (10 1:5 steps) is transferred for each compound.
The assay has been performed at two different NAD/3-PG ratios (final assay concentrations):
Plates are kept at room temperature. After 240 minutes incubation time the fluorescence signal is measured in a PerkinElmer Envision HTS Multilabel Reader with an excitation wavelength at 530-560 nm and an emission wavelength at 590 nm.
Each plate contains negative controls (diluted DMSO instead of test compound; reaction as described with PHGDH protein) and positive controls (diluted DMSO instead of test compound; reaction as described with buffer instead of PHGDH protein). Negative and positive control values are used for normalization.
IC50 values are calculated and analyzed in the MEGALAB IC50 application using a 4 parametric logistic model.
In the case of `CN1CCN(c2cc(Cl)c3cc(C(=O)N[C@H](CO)c4ccc(S(=O)(=O)CC(=O)O)cc4)n(C)c3c2)CC1` [Example 03-017, 2-{4-[(1S)-1-{[4-chloro-1-methyl-6-(4-methylpiperazin-1-yl)-1H-indol-2-yl]formamido}-2-hydroxyethyl]benzenesulfonyl}acetic acid], the IC50 worked out at 40 nM. Same read-out and setting: in the case of `C[C@@H](NC(=O)c1cc2c(Cl)cc(N3CCN(C)CC3)cc2n1C)c1ccc(S(=O)(=O)CC(=O)O)cc1` [Example 03-018, 2-{4-[(1R)-1-{[4-chloro-1-methyl-6-(4-methylpiperazin-1-yl)-1H-indol-2-yl]formamido}ethyl]benzenesulfonyl}acetic acid] it was 84 nM; in that of `C[C@@H](NC(=O)c1cc(-c2ccccc2)nn1C)c1ccc(S(=O)(=O)CC(=O)O)cc1` [Example 04-001, 2-{4-[(1R)-1-[(1-methyl-3-phenyl-1H-pyrazol-5-yl)formamido]ethyl]benzenesulfonyl}acetic acid], 145 nM; in that of `C[C@@H](NC(=O)c1cc(-c2ccc(F)cc2)nn1C)c1ccc(S(=O)(=O)CC(=O)O)cc1` [Example 04-002, 2-{4-[(1R)-1-{[3-(4-fluorophenyl)-1-methyl-1H-pyrazol-5-yl]formamido}ethyl]benzenesulfonyl}acetic acid], 76 nM.

For the compound `C[C@@H](NC(=O)c1cc(-c2cccc3cc[nH]c23)nn1C)c1ccc(S(=O)(=O)CC(=O)O)cc1` [Example 04-003, 2-{4-[(1R)-1-{[3-(1H-indol-7-yl)-1-methyl-1H-pyrazol-5-yl]formamido}ethyl]benzenesulfonyl}acetic acid], the IC50 turned out to be 53 nM. Turning to `Cn1nc(-c2ccc(F)cc2)cc1C(=O)N[C@H](CO)c1ccc(S(=O)(=O)CC(=O)O)cc1` [Example 04-004, 2-{4-[(1S)-1-{[3-(4-fluorophenyl)-1-methyl-1H-pyrazol-5-yl]formamido}-2-hydroxyethyl]benzenesulfonyl}acetic acid], the IC50 was 174 nM.

With `COC(=O)C(C)(C)S(=O)(=O)c1ccc([C@@H](C)NC(=O)c2cc3cc(Cl)ccc3n2C)cc1` [Example 05-002, methyl 2-{4-[(1R)-1-[(5-chloro-1-methyl-1H-indol-2-yl)formamido]ethyl]benzenesulfonyl}-2-methylpropanoate], the IC50 was found to be 33100 nM.

`COC(=O)C(C)S(=O)(=O)c1ccc([C@@H](C)NC(=O)c2cc3cc(Cl)ccc3n2C)cc1` (stereo partly drawn) [Example 05-006, methyl 2-{4-[(1R)-1-[(5-chloro-1-methyl-1H-indol-2-yl)formamido]ethyl]benzenesulfonyl}propanoate]: the IC50 worked out at 3050 nM. Same read-out and setting: in the case of `COC(=O)C(C)(C)S(=O)(=O)c1ccc([C@@H](C)NC(=O)c2cc3c(Cl)cc(C)cc3n2C)cc1` [Example 05-007, methyl 2-{4-[(1R)-1-[(4-chloro-1,6-dimethyl-1H-indol-2-yl)formamido]ethyl]benzenesulfonyl}-2-methylpropanoate] it was 4520 nM; in that of `COC(=O)C1(S(=O)(=O)c2ccc([C@@H](C)NC(=O)c3cc4c(Cl)cc(C)cc4n3C)cc2)CCCC1` [Example 05-008, methyl 1-{4-[(1R)-1-[(4-chloro-1,6-dimethyl-1H-indol-2-yl)formamido]ethyl]benzenesulfonyl}cyclopentane-1-carboxylate], 18300 nM; in that of `CCCC(C(=O)OC)S(=O)(=O)c1ccc([C@@H](C)NC(=O)c2cc3c(Cl)cc(C)cc3n2C)cc1` (stereo partly drawn) [Example 05-015, methyl 2-{4-[(1R)-1-[(4-chloro-1,6-dimethyl-1H-indol-2-yl)formamido]ethyl]benzenesulfonyl}pentanoate], 3470 nM. The same measure, in the same setting: in the case of `CCOC(=O)C(C)(C)S(=O)(=O)c1ccc([C@@H](C)NC(=O)c2cc3c(Cl)c(Cl)c(C)nc3n2C)cc1` [Example 05-016, ethyl 2-{4-[(1R)-1-({4,5-dichloro-1,6-dimethyl-1H-pyrrolo[2,3-b]pyridin-2-yl}formamido)ethyl]benzenesulfonyl}-2-methylpropanoate] it was over 100000 nM; in that of `COC(=O)C(C)(C)S(=O)(=O)c1ccc([C@@H](C)NC(=O)c2cc3c(Cl)c(Cl)c(C)nc3n2C)cc1` [Example 05-020, methyl 2-{4-[(1R)-1-({4,5-dichloro-1,6-dimethyl-1H-pyrrolo[2,3-b]pyridin-2-yl}formamido)ethyl]benzenesulfonyl}-2-methylpropanoate], over 20000 nM; in that of `COC(=O)C1(S(=O)(=O)c2ccc([C@@H](CO)NC(=O)c3cc4c(Cl)cc(C)cc4n3C)cc2)CCOCC1` [Example 05-021, methyl 4-{4-[(1S)-1-[(4-chloro-1,6-dimethyl-1H-indol-2-yl)formamido]-2-hydroxyethyl]benzenesulfonyl}oxane-4-carboxylate], 2450 nM.

`COC(=O)C(C)(C)S(=O)(=O)c1ccc([C@@H](C)NC(=O)c2cc3c(Cl)c(Cl)c(C)cc3n2C)cc1` [Example 05-022, methyl 2-{4-[(1R)-1-[(4,5-dichloro-1,6-dimethyl-1H-indol-2-yl)formamido]ethyl]benzenesulfonyl}-2-methylpropanoate]: the IC50 was 5580 nM. For `COC(=O)C1(S(=O)(=O)c2ccc([C@@H](C)NC(=O)c3cc(-c4ccc(F)cc4)nn3C)cc2)CCCC1` [Example 06-003, methyl 1-{4-[(1R)-1-{[3-(4-fluorophenyl)-1-methyl-1H-pyrazol-5-yl]formamido}ethyl]benzenesulfonyl}cyclopentane-1-carboxylate], the IC50 was 11700 nM. On to `CC(C)OC(=O)C(C)S(=O)(=O)c1ccc([C@@H](C)NC(=O)c2cc(-c3ccccc3)nn2C)cc1` (stereo partly drawn) [Example 06-004, propan-2-yl 2-{4-[(1R)-1-[(1-methyl-3-phenyl-1H-pyrazol-5-yl)formamido]ethyl]benzenesulfonyl}propanoate], for which the IC50 was 78200 nM. On the same count and under the same terms, in the case of `CC(C)OC(=O)C(C)(C)S(=O)(=O)c1ccc([C@@H](C)NC(=O)c2cc(-c3ccccc3)nn2C)cc1` [Example 06-005, propan-2-yl 2-methyl-2-{4-[(1R)-1-[(1-methyl-3-phenyl-1H-pyrazol-5-yl)formamido]ethyl]benzenesulfonyl}propanoate] it was 15900 nM.

Regarding `CC(C)OC(=O)C(C)(C)S(=O)(=O)c1ccc([C@@H](CO)NC(=O)c2cc(-c3ccc(F)cc3)nn2C)cc1` [Example 06-006, propan-2-yl 2-{4-[(1S)-1-{[3-(4-fluorophenyl)-1-methyl-1H-pyrazol-5-yl]formamido}-2-hydroxyethyl]benzenesulfonyl}-2-methylpropanoate], the IC50 is 14500 nM. On to `CC(C)OC(=O)C(C)S(=O)(=O)c1ccc([C@@H](CO)NC(=O)c2cc(-c3ccc(F)cc3)nn2C)cc1` (stereo partly drawn) [Example 06-007, propan-2-yl 2-{4-[(1S)-1-{[3-(4-fluorophenyl)-1-methyl-1H-pyrazol-5-yl]formamido}-2-hydroxyethyl]benzenesulfonyl}propanoate], for which the IC50 worked out at 29600 nM.

In the case of `COC(=O)C(C)(C)S(=O)(=O)c1ccc([C@@H](CO)NC(=O)c2cc(-c3ccc(F)cc3)nn2C)cc1` [Example 06-008, methyl 2-{4-[(1S)-1-{[3-(4-fluorophenyl)-1-methyl-1H-pyrazol-5-yl]formamido}-2-hydroxyethyl]benzenesulfonyl}-2-methylpropanoate], the IC50 stood at 8340 nM. Take `CCC(CC)(C(=O)O)S(=O)(=O)c1ccc([C@@H](C)NC(=O)c2cc3c(Cl)cc(C)cc3n2C)cc1` [Example 07-001, 2-{4-[(1R)-1-[(4-chloro-1,6-dimethyl-1H-indol-2-yl)formamido]ethyl]benzenesulfonyl}-2-ethylbutanoic acid]: the IC50 is 10 nM.

`Cc1cc(Cl)c2cc(C(=O)N[C@H](C)c3ccc(S(=O)(=O)C(C)C(=O)O)cc3)n(C)c2c1` (stereo partly drawn) [Example 07-003, 2-{4-[(1R)-1-[(4-chloro-1,6-dimethyl-1H-indol-2-yl)formamido]ethyl]benzenesulfonyl}propanoic acid]: the IC50 worked out at 8 nM. As to `Cc1cc(Cl)c2cc(C(=O)N[C@H](C)c3ccc(S(=O)(=O)C4(C(=O)O)CCCC4)cc3)n(C)c2c1` [Example 07-004, 1-{4-[(1R)-1-[(4-chloro-1,6-dimethyl-1H-indol-2-yl)formamido]ethyl]benzenesulfonyl}cyclopentane-1-carboxylic acid], the IC50 amounted to 6 nM.

`C[C@@H](NC(=O)c1cc2cc(Cl)ccc2n1C)c1ccc(S(=O)(=O)[C@@H](C)C(=O)O)cc1` [Example 07-006, (2S)-2-{4-[(1R)-1-[(5-chloro-1-methyl-1H-indol-2-yl)formamido]ethyl]benzenesulfonyl}propanoic acid]: the IC50 worked out at 238 nM. Turning to `C[C@@H](NC(=O)c1cc2cc(Cl)ccc2n1C)c1ccc(S(=O)(=O)C(C)(C)C(=O)O)cc1` [Example 07-007, 2-{4-[(1R)-1-[(5-chloro-1-methyl-1H-indol-2-yl)formamido]ethyl]benzenesulfonyl}-2-methylpropanoic acid], the IC50 turned out to be 209 nM.

Still in this assay, the particulars now being: 500 μM NAD/500 μM 3-PG; read-out: IC50 (PHGDH_500_NAD/3-PG).
For the compound `CN1CCN(c2cc(Cl)c3cc(C(=O)N[C@H](CO)c4ccc(S(=O)(=O)CC(=O)O)cc4)n(C)c3c2)CC1` [Example 03-017, 2-{4-[(1S)-1-{[4-chloro-1-methyl-6-(4-methylpiperazin-1-yl)-1H-indol-2-yl]formamido}-2-hydroxyethyl]benzenesulfonyl}acetic acid], the IC50 worked out at 146 nM. Still for that read-out and setting: in the case of `C[C@@H](NC(=O)c1cc2c(Cl)cc(N3CCN(C)CC3)cc2n1C)c1ccc(S(=O)(=O)CC(=O)O)cc1` [Example 03-018, 2-{4-[(1R)-1-{[4-chloro-1-methyl-6-(4-methylpiperazin-1-yl)-1H-indol-2-yl]formamido}ethyl]benzenesulfonyl}acetic acid] it was 292 nM; in that of `C[C@@H](NC(=O)c1cc(-c2cccc3cc[nH]c23)nn1C)c1ccc(S(=O)(=O)CC(=O)O)cc1` [Example 04-003, 2-{4-[(1R)-1-{[3-(1H-indol-7-yl)-1-methyl-1H-pyrazol-5-yl]formamido}ethyl]benzenesulfonyl}acetic acid], 87 nM. `Cn1nc(-c2ccc(F)cc2)cc1C(=O)N[C@H](CO)c1ccc(S(=O)(=O)CC(=O)O)cc1` [Example 04-004, 2-{4-[(1S)-1-{[3-(4-fluorophenyl)-1-methyl-1H-pyrazol-5-yl]formamido}-2-hydroxyethyl]benzenesulfonyl}acetic acid]: the IC50 is 299 nM.

`Cc1cc2c(cc(C(=O)N[C@H](C)c3ccc(S(=O)(=O)C4CCOC4=O)cc3)n2C)c(Cl)c1Cl` (stereo partly drawn) [Example 05-023, 4,5-dichloro-1,6-dimethyl-N-[(1R)-1-{4-[(2-oxooxolan-3-yl)sulfonyl]phenyl}ethyl]-1H-indole-2-carboxamide]: the IC50 came out at 119 nM. For `Cc1cc2c(cc(C(=O)N[C@H](C)c3ccc(S(=O)(=O)C4CCOC4=O)cc3)n2C)c(F)c1F` (stereo partly drawn) [Example 05-024, 4,5-difluoro-1,6-dimethyl-N-[(1R)-1-{4-[(2-oxooxolan-3-yl)sulfonyl]phenyl}ethyl]-1H-indole-2-carboxamide], the IC50 is 119 nM. For the compound `Cc1cc2c(cc(C(=O)N[C@H](C)c3ccc(S(=O)(=O)C4CCCOC4=O)cc3)n2C)c(Cl)c1Cl` (stereo partly drawn) [Example 05-025, 4,5-dichloro-1,6-dimethyl-N-[(1R)-1-{4-[(2-oxooxan-3-yl)sulfonyl]phenyl}ethyl]-1H-indole-2-carboxamide], the IC50 came to 20 nM.

Consider `CCC(CC)(C(=O)O)S(=O)(=O)c1ccc([C@@H](C)NC(=O)c2cc3c(Cl)cc(C)cc3n2C)cc1` [Example 07-001, 2-{4-[(1R)-1-[(4-chloro-1,6-dimethyl-1H-indol-2-yl)formamido]ethyl]benzenesulfonyl}-2-ethylbutanoic acid], for which the IC50 was 14 nM.

The record behind these values is patent US11304929B2, “Tosylacetate based compounds and derivatives thereof as PHGDH inhibitors” (priority 2017, dated 2022).
